The source of these data is US10611759B2, “Glutaminase inhibitors” (Rhizen Pharmaceuticals SA, priority 2014, dated 2020).

SMILES strings stand for the structures. Like-named read-outs stand apart in the source and are kept apart here. Some results are limits rather than exact numbers.

One data set has as its target T1, Glutaminase(Brain) (Mus musculus, UniProt D3Z7P3).
T1 sequence (D3Z7P3 55-674): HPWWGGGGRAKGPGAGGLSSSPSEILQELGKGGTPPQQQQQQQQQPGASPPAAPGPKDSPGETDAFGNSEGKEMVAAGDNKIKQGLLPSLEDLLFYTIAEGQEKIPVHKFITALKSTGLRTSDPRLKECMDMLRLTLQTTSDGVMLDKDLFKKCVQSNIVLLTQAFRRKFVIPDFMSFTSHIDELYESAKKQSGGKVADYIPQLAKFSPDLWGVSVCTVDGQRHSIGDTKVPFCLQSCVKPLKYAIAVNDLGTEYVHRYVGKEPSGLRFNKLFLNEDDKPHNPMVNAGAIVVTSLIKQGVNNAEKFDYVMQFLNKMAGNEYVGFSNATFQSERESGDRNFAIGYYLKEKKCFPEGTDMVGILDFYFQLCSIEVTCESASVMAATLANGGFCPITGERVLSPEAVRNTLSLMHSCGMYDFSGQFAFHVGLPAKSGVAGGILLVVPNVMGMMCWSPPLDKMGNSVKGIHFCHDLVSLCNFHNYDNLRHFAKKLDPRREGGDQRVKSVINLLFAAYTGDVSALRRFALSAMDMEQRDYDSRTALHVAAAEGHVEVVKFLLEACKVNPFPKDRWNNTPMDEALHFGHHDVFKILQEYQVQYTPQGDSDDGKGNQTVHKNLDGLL
The data set can be described thus: Glutaminase enzyme activity using glutaminase enzyme from mice brain/kidney homogenate (Nessler's reagent, ammonia). It is filed as biochemical. The following applies: for inhibition at 0.1 µM: read-out: Glutaminase(Brain) activity % inhibition 0.1 μM; for inhibition at 1 µM: read-out: Glutaminase(Brain) activity % inhibition @1 μM. As for the experimental part:
Assay 3: Determination of Glutaminase Enzyme Activity Using Glutaminase Enzyme from Mice Brain/Kidney
Step 1: Preparation of Tissue Homogenates:
Male Balb/c mice were administered 0.28 M ammonium chloride in drinking water for 7 days. The animals were sacrificed and brain/kidney organs collected on dry ice. […] The tissue was homogenized and supernatants were stored at −80° C. until the enzyme assay was performed.
Aim: Compounds were assessed for their ability to inhibit the enzymatic activity of L-glutaminase present in mice brain/kidney homogenate.
Protocol: The assay was performed using a colorimetric method using Nessler's Reagent by quantifying the amount of ammonia formed as a by product during the enzymatic conversion of L-glutamine to glutamate. In the routine assay, 16 μl of tissue homogenate is added to 33 μl of Tris-Hcl phosphate buffer (pH 8) along with 1 μl of DMSO/test compound containing the desired final concentration and vortexed briefly. 50 μl of 20 mM L-glutamine Tris buffer is added to start the reaction and incubated for 15 minutes at 37° C. The ammonia formed is detected by adding 20 μl of reaction mixture to cold water in a 96 well plate followed by 20 μl of Nessler's reagent. The colour developed is measured at 450 nm. Data Analysis: Activity of the test compound is reported as % inhibition and the data is analyzed using Graphpad Prism (Graphpad software; San Diego Calif.) for IC50 determination.

The next data set deals with HCT116. The data set can be described thus: In vitro cell proliferation assay (MTT), HCT116. Type of data set: cell-based. The following applies: Homo sapiens, HCT-116, 72 hours. As to the method: (§1) Assay 4: In Vitro Cell Proliferation Assay in Cancer Cell Lines
(§2) Growth inhibition assays were carried out using 10% FBS supplemented media. Cells were seeded at a concentration of 5000-20,000 cells/well in a 96-well plate. Test compounds at a concentration range from 0.01 to 10000 nM were added after 24 hours. Growth was assessed using the 3-[4,5-dimethylthiazol-2-yl]-2,5-diphenyltetrazolium bromide (MTT) dye reduction test at 0 h (prior to the addition of the test compound) and 72 hours after the addition of test compound. Absorbance was read on a Fluostar Optima (BMG Labtech, Germany) at a wave length of 450 nm. Data were analysed using GraphPad Prism and percent inhibition due to the test compound compared to the control was calculated accordingly.

In another data set the test system is Rajii. Description: In vitro cell proliferation assay (MTT), Rajii. Type of data set: cell-based. The following applies: 72 hours. As for the experimental part: as §1, §2
A further data set deals with A549. Description: In vitro cell proliferation assay (MTT), A549. The following applies: Homo sapiens, 72 hours. It is filed as cell-based. As to the method:
as §1, §2

A further data set concerns Daudi. Description: In vitro cell proliferation assay (MTT), Daudi. Type of data set: cell-based. The following applies: Homo sapiens, 72 hours. As for the experimental part:
as §1, §2

Consider `O=C(Cc1ccccn1)Nc1ccc(N2CCCC(c3nnc(NC(=O)Cc4cccc(OC(F)(F)F)c4)s3)C2)cn1` (stereo not drawn) [Example-7, 2-(Pyridin-2-yl)-N-(5-(3-(5-(2-(3-(trifluoromethoxy)phenyl)acetamido)-1,3,4-thiadiazol-2-yl)piperidin-1-yl)pyridin-2-yl)acetamide], for which the melting point (commonly the temperature, or range, at which the solid turns liquid) was 151 to 153 °C. The inhibition (commonly the change of the read-out against control, counted positive when it falls) at 0.1 µM at Glutaminase(Brain) (0.1 μM, mice brain homogenate) was below 25%. Further, the inhibition at 1 µM on Glutaminase(Brain) (1 μM, mice brain homogenate) was below 25%.
For the compound `O=C(Cc1cccc(OC(F)(F)F)c1)Nc1ccc(N2CCC(c3nnc(NC(=O)Cc4ccccn4)s3)CC2)nn1` [Example-8, 2-(pyridin-2-yl)-N-(5-(1-(6-(2-(3-(trifluoromethoxy)phenyl)acetamido)pyridazin-3-yl)piperidin-4-yl)-1,3,4-thiadiazol-2-yl)acetamide], the inhibition at 0.1 µM on Glutaminase(Brain) is 75 to 100%. Further, at Glutaminase(Brain), the inhibition at 1 µM was 75 to 100%. The GI50 (as a rule, the concentration giving 50% growth inhibition) was 250 to 500 nM with HCT116, below 100 nM in the data set with Rajii, 100 to 250 nM in the data set with A549 and below 100 nM in the data set with Daudi.
